Measurements published in paper doi:10.1101/2023.02.14.528391v1 (biorxiv, 2023).

What follows are compounds tested against hERG potassium channel (Homo sapiens, UniProt Q12809) (assay: in vitro). Conditions: % inhibition.
hERG potassium channel, sequence (Q12809 whole entry): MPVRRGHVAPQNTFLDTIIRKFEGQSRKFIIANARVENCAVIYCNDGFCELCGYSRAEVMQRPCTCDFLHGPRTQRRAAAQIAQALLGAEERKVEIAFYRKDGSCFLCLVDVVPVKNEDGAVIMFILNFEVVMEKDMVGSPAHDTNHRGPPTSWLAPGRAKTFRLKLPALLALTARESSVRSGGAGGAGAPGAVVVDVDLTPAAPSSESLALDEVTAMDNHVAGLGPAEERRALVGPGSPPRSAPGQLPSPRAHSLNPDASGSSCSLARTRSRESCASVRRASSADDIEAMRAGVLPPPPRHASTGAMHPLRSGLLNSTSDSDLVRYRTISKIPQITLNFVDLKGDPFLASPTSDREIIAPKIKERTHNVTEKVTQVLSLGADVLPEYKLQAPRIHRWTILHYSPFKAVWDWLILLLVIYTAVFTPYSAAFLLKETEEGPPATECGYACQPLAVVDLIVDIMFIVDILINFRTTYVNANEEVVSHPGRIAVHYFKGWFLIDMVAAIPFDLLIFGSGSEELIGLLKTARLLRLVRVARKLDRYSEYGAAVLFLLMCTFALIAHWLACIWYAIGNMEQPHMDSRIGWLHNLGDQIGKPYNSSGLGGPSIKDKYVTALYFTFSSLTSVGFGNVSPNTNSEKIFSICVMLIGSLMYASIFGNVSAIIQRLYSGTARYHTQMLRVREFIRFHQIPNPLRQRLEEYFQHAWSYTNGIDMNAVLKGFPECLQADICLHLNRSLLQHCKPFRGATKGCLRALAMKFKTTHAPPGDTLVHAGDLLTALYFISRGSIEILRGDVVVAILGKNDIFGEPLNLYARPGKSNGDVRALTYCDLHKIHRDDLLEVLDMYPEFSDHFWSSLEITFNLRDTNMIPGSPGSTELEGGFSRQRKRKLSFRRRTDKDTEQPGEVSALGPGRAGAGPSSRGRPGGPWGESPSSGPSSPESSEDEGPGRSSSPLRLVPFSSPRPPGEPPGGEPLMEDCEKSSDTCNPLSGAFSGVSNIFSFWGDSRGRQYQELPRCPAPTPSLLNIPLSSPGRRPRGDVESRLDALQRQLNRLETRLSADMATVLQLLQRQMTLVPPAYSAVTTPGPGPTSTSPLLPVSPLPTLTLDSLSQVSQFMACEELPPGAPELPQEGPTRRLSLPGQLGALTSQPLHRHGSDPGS

In order of rising inhibition at 10 µM:
1. CC1CCCCC1N=c1scc(-c2ccnn2C)n1N=Cc1ccc(Cl)cn1 (stereo not drawn) [s_1____86334____13026574____11759950]  -2.58%
2. Clc1ccccc1-n1ccc(CNC2(c3ncccn3)CCOCC2)n1 [s_2230____13270592____17316260]  -0.942%
3. CN(C)CCN(Cc1ccccc1F)C(=O)c1cccc2ncccc12 [s_527____7348186____237975]  1.57%
4. CN(C)c1ncccc1CN1CCN(C(=O)c2c(Cl)cccc2Cl)CC1 [s_270004____8133704____10229386]  2.59%
5. CN(CCCN(C)C(=O)c1ccnc2ccsc12)C(=O)c1cncc(Cl)c1  2.59%
6. CN(C)CCc1nc2ccccc2n1Cc1ccc(F)cc1 [GMD_9161]  6.04%
7. Cc1ccc(-c2nn(CN(C)CCC3CCOCC3)c(=O)c3ccccc23)cc1 [m_26____7043632____590162]  7.12%
8. CN(C)CCN(Cc1ccccc1)C(=O)c1ncccc1Cl [s_11____117338____10437082]  9.12%
9. CN(C)CCn1nc(-c2cccs2)c2ccccc2c1=O [NBI1099533]  9.92%
10. CN(C)CCCn1nc(-c2ccccc2Cl)c2ccccc2c1=O [GMD_16666]  10.6%
11. CN(C)CCn1nc(-c2ccncc2)c2ccccc2c1=O [NBI1099472]  15%
12. CN(C)CCc1nc2ccccc2n1Cc1ccc(F)c(F)c1 [GMD_9634]  16.1%
13. CN(C)CCn1nc(-c2ccccn2)c2ccccc2c1=O [GMD_13601]  16.6%
14. CN(C)CCCN(C)Cc1c(-c2ccccc2F)nn(C)c1Cl [s_270004____10205916____16947572]  17.6%
15. CC(=Cc1ccccn1)C(=O)N(CCN(C)C)c1ccccc1 [s_11____2264406____11762612]  18.8%
16. Cc1cccc2c(C(=O)N(CCN(C)C)c3ccccn3)cnn12 [s_11____17828754____16474570]  20.8%
17. Cc1ccc2cc(C(=O)N(CCN(C)C)Cc3ccccc3F)ccc2n1 [s_527____7348186____7593650]  21.8%
18. CN(C)CCN(C(=O)c1cccc2ncccc12)c1ccccc1 [s_11____2264406____15260550]  21.8%
19. COc1cc(C(=O)N(CCN(C)C)c2ccccc2)c2ncccc2c1 [s_11____2264406____15769708]  22.5%
20. CN(C)CCCn1nc(-c2ccncc2)c2ccccc2c1=O [NBI1099478]  23.4%
21. CN(C)CCN(Cc1ccc(F)c(F)c1)C(=O)c1ccnc(Cl)c1Cl [s_22____2224104____12421166]  23.5%
22. CN(C)CCN(Cc1ccc(F)cc1F)C(=O)c1cc(Br)ncc1Cl [s_11____4836304____10207328]  28.7%
23. Cc1ccc2c(C(=O)N(CCN(C)C)c3ccccn3)ccnc2c1Cl [s_11____17828754____14179334]  29.9%
24. CN(C)CCN(Cc1ccccc1)C(=O)N1CCSc2ccncc21 [s_272164____9389444____9363352]  31.1%
25. CN(C)CCN(Cc1ccccc1F)C(=O)c1nccc2ncccc12 [s_527____7348186____14775532]  33.1%
26. CN(C)CCN(Cc1ccccc1F)C(=O)N1CCSc2ncccc21 [s_272164____9389146____17325014]  37.3%
27. CN(C)CCCN(Cc1ccc(Cl)c(Cl)c1)C(=O)c1nccc2ncccc12 [s_527____1500312____14775532]  40%
28. CSc1ncccc1-c1nn(CCN(C)C)c(=O)c2ccccc12 [NBI1100648]  44.2%
29. CN(C)CCc1nc2ccccc2n1CCc1ccccc1 [GMD_12737]  45.4%
30. CN(C)CCC(Sc1ccncc1F)c1ccccc1 (stereo not drawn) [s_7____14325654____13940010]  47.3%
31. CC(=Cc1ccccc1Cl)C(=O)N(CCN(C)C)c1ccccn1 [s_11____17828754____7832710]  48.4%
32. COCCN(CCN(C)C)C(=O)c1cccnc1Oc1ccc(Cl)cc1Cl [s_22____3489604____2009120]  48.6%
33. CN(C)CCc1nc2ccccc2n1Cc1ccccc1Cl [GMD_7286]  51.3%
34. Cc1cccc2c(C(=O)N(CCN(C)C)Cc3ccccc3F)nccc12 [s_527____7348186____14188826]  52.7%
35. CN(C)CCN(Cc1ccccc1)C(=O)c1cc(-c2ccccn2)ccc1Cl [s_527____284286____7794996]  55%
36. CN(C)CCN(Cc1ccccc1F)C(=O)c1cccc2cccnc12 [s_11____4836284____101939]  55%
37. CN(C)CCN(Cc1ccccc1F)C(=O)c1c(Cl)ccc2cccnc12 [s_527____7348186____16891240]  59.1%
38. CN(C)CCn1nc(-c2ccccc2)c2ccccc2c1=O [GMD_24043]  60.1%
39. CN(C)CCN(Cc1nccn1C)c1cc(C(F)F)nc2ccc(Cl)cc12 [s_27____16636988____10213920]  61%
40. Cc1csc2ccnc(N3CCOCC4(COCCN4Cc4ccccc4)C3)c12 (stereo not drawn) [s_27____15756872____16607386]  62.1%
41. CN(C)CCOc1ccccc1-c1cn(C)c2cccnc12 [s_271570____11676396____16733458]  63.8%
42. CN(C)CCN(CCCc1ccccc1)C(=O)c1cn(C)c2ccccc12 [s_22____2161756____115777]  63.8%
43. Clc1ccccc1N(CCN1CCOCC1)Cc1cc2ncccc2s1 [s_2230____12297302____16648172]  66%
44. CN(C)CCCN(Cc1ccc(Cl)c(Cl)c1)C(=O)c1ccn2c1CSCC2 [s_527____1500312____16910956]  66.8%
45. Cc1ccc(C(=O)N(CCN(C)C)Cc2ccccc2)c2ncccc12 [s_527____284286____13308974]  69.2%
46. CN(C)CCN(Cc1ccccc1)Cc1c(Cl)cccc1-n1ccnc1 [s_270004____10205888____17057166]  71.1%
47. Cc1cc2nc(Cl)nc(N(CCN(C)C)Cc3nccn3C)c2s1 [s_27____16636988____12112620]  71.2%
48. CN(C)CCN(Cc1cccc(F)c1)C(=O)CSc1nc2ccccc2n1C [s_22____2224108____339636]  75.6%
49. CN(C)CCN(Cc1cccc(Cl)c1)C(=O)N1CCSc2ccncc21 [s_272164____9389444____9369516]  75.9%
50. CN(C)CCN(Cc1cccs1)Cc1cc2cnn(C)c2nc1Cl [s_270004____10206112____16971162]  78.3%
51. CN(C)CCn1nc(-c2cncc(Cl)c2)c2ccccc2c1=O [NBI1099473]  86.1%
52. CN(C)CCN(Cc1ccccc1F)c1ncc(Cl)cc1Cl [s_27____7100864____12221638]  86.4%
53. CN(C)CCN(CCc1ccccc1)C(=O)c1csc2cc(Cl)cnc12 [s_11____764634____11618976]  88.2%
54. CN(C)CCN(Cc1nccn1C)c1nc2cc(Cl)ccc2s1 [s_27____16636988____14057938]  89.1%
55. CN(C)CCN(Cc1nccn1C)c1nc(-c2ccccn2)nc2sccc12 [s_27____16636988____12321872]  91.6%
56. Cc1cccc(CN(CCN(C)C)C(=O)C2=Cc3ccc(Cl)cc3OC2)c1 [s_22____3218898____13770932]  94.3%
57. COCCN(CCN(C)C)Cc1c(Cl)cccc1Oc1ccccc1 [s_270004____10206068____8363900]  99%
